# Experimental data: PubChem BioAssay AID1645864 (Buhrlage Lab, Dana-Farber Cancer Institute and Novartis …, 2021)
# Activity calls are given as the source filed them.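 Rule for the calls: active = maximal inhibition of USP17 at or above 30% in the confirmation dose-response, a value not among the printed readouts; inactive = the rest.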
# Biological target: Ubiquitin carboxyl-terminal hydrolase 17-like protein 5 (Homo sapiens) (UniProt A8MUK1)
# Experiment: ubiquitin-specific protease 17 inhibitors, concentration series, biochemical, verification of primary actives (AID 1645864)
# Conditions: purified USP17, ubiquitin-rhodamine cleavage fluorescence, 3 h
# Ubiquitin carboxyl-terminal hydrolase 17-like protein 5 (Homo sapiens), sequence (A8MUK1 whole entry, looked up): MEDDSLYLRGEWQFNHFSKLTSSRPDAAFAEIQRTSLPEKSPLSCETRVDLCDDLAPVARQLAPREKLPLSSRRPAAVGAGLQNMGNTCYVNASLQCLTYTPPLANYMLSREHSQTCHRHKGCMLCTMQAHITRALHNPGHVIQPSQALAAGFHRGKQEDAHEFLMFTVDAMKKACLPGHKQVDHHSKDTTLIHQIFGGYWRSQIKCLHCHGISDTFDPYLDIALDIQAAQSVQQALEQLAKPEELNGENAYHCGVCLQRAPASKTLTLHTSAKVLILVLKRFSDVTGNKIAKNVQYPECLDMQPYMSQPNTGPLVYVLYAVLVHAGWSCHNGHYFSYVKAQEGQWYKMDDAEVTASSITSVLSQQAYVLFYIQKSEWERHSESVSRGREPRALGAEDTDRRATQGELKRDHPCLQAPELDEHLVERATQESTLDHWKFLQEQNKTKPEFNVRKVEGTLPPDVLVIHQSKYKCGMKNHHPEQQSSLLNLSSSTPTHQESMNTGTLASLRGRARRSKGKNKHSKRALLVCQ
row,Compound,IC50
1,O=C(CSc1nc2ccccc2n1S(=O)(=O)c1ccc(Br)cc1)Nc1ccc([N+](=O)[O-])cc1Cl,> 50 µM (inactive)
2,CC(C)c1ccc(/C=C/C(=O)N2CCc3ccccc3C2)cc1,21.1 µM
3,CCOCCCn1c(SCC(=O)Nc2ccccc2C(F)(F)F)nc2ccccc2c1=O,20.9 µM
4,Cc1nc(-c2ccccn2)sc1C(=O)Nc1ccc(C#N)cc1,> 50 µM (inactive)
5,CN(C)c1ccc(C2CC(c3c(O)n(C)c(=O)[nH]c3=O)=Nc3ccccc3S2)cc1 (stereo unspecified),2.37 µM
6,O=C(Cn1c(=O)n(CCC(=O)N2CC=C(c3ccccc3)CC2)c(=O)c2ccccc21)NCc1ccco1,31.2 µM
7,COc1cccc(NC(=O)CSc2nnc(-c3cc4cccc(OC)c4o3)n2C)c1,11.9 µM
8,COc1cccc(NC(=O)C2Cn3ccnc3C3(CCN(C(C)=O)CC3)O2)c1 (stereo unspecified),> 50 µM (inactive)
9,O=S(=O)(c1cccc2cccnc12)N(CCc1ccccc1)C1CCN(CCc2ccc(Cl)cc2)CC1,> 50 µM (inactive)
10,CCOC(=O)c1cc2c(ccn2C)n1Cc1cccc2ccccc12,> 50 µM (inactive)
11,Cc1oc(-c2ccc(C(=O)NCC3COCCO3)cc2)nc1CN1CCc2ccccc21 (stereo unspecified),> 50 µM (inactive)
12,COc1ccc(OC)c(-c2cc(C(=O)Nc3c(C)nn(Cc4ccccc4)c3C)no2)c1,> 50 µM (inactive)
13,CCCCNC(=O)C1Sc2nnc(-c3ccccc3)n2NC1c1ccccc1 (stereo unspecified),23.7 µM
14,NS(=O)(=O)c1ccc(CNS(=O)(=O)c2ccc(-c3ccccn3)s2)cc1,23.2 µM
15,COc1cccc2c1OCC(NS(=O)(=O)c1cc(C)ccc1C)C2 (stereo unspecified),> 50 µM (inactive)
16,COc1ccc(S(=O)(=O)Nc2ccc(Nc3ccc(-n4cccn4)nn3)cc2)cc1,44.9 µM
17,CC1Cc2ccccc2N1C(=O)Cn1c(=O)cc(O)c2ccccc21 (stereo unspecified),> 50 µM (inactive)
18,Cc1cccc(NC(=O)CN2C(=O)COc3cc(S(=O)(=O)N4CCCC4)ccc32)c1C,26.4 µM
19,O=C(NCc1nc(-c2ccc3c(c2)[nH]c(=O)n3C2CCCC2)no1)c1ccccc1,> 5 µM (inactive)
20,COc1cccc(-c2cc(C(=O)Nc3cc(C)n(Cc4ccc(Cl)cc4)n3)no2)c1,4.67 µM
21,COc1ccccc1C(=O)N1CCc2[nH]c3ccc(F)cc3c2C1,> 50 µM (inactive)
22,Cc1ccc(-c2noc(-c3nnc(SCC(=O)NC4CCCC4)n3C)n2)cc1,2.34 µM
23,COc1ccc(NC(=O)CN2C(=O)c3ccccc3Sc3ccc(C(=O)N4CCCC4)cc32)c(OC)c1,17.7 µM
24,COc1cccc(/C=C/C(=O)Nc2ccc(N3CCOCC3)cc2)c1OC,> 50 µM (inactive)

row,Compound,IC50
1,CC1=C[C@H]2N(c3ccc(C)cc31)[C@H](C(=O)c1cccs1)[C@@H](C(=O)c1ccc(F)cc1)[C@]21C(=O)Nc2ccccc21,> 50 µM (inactive)
2,O=c1cc(CNc2ccc(Br)cc2)nc2nc(-c3ccccc3)[nH]n12,> 50 µM (inactive)
3,Cc1c2c(nc3ccccc13)-c1ccccc1CC2,> 50 µM (inactive)
4,Cc1ccccc1Cn1ccc(NC(=O)c2noc(C)c2[N+](=O)[O-])n1,> 50 µM (inactive)
5,CN1C(=O)[C@@]23C[C@]4([C@@]56C[C@]78SS[C@](CO)(C(=O)N7[C@@H]5Nc5ccccc56)N(C)C8=O)c5ccccc5N[C@@H]4N2C(=O)[C@]1(CO)SS3,> 50 µM (inactive)
6,Cc1ccc(C(=O)c2cn(CC(=O)Nc3ccccc3)c3ccc(C)cc3c2=O)cc1,10.9 µM
7,Cc1cc(=O)n(CC(=O)Nc2ccccc2F)c(Nc2ccc(F)cc2)n1,12.9 µM
8,CC(=O)N1CCc2cc(S(=O)(=O)NCCC(=O)Nc3cccc(C)c3C)ccc21,23.7 µM
9,O=C(c1nnn(Cc2ccc(Cl)cc2)c1-n1cccc1)N1CCCC1,> 50 µM (inactive)
10,CCOc1ccc(C2=NCCNC3=C2C(c2ccccc2)N(c2ccccc2)C3=O)cc1 (stereo unspecified),> 50 µM (inactive)
11,COc1ccc(NC(=O)c2ccccc2OCC(=O)Nc2ccccc2C(F)(F)F)c(C)c1,26.9 µM
12,COc1cccc(NC(=O)c2nnn(-c3ccccc3)n2)c1,> 50 µM (inactive)
13,O=C(Cn1nc2ccc(C(=O)NCc3ccccc3)cn2c1=O)Nc1ccc2c(c1)OCO2,45.1 µM
14,CS(=O)(=O)NC1CCCN(C(=O)Nc2cccc3ccccc23)C1 (stereo unspecified),17.3 µM
15,Cc1ccccc1NC(=O)c1cc(S(=O)(=O)N2CCCCCC2)ccc1Cl,35.2 µM
16,COc1ccc(-n2ccn3c(CCC(=O)NCc4ccc(F)cc4)nnc3c2=O)cc1,33 µM
17,c1ccc(-n2nnc(-c3noc(-c4ccccn4)n3)c2-c2ccncc2)cc1,46.6 µM
18,CC(C)Cc1nc2oc3c(N(C)CCO)ncnc3c2c2c1CCC2,> 50 µM (inactive)
19,COc1ccc(NC(=O)c2nnn(-c3ccccc3)c2C)cc1OC,> 50 µM (inactive)
20,CC(=O)c1sc(NC(=O)c2ccccc2-c2ccc(C(F)(F)F)cc2)nc1C,17 µM
21,O=C(Nc1ccccc1)c1nc(-c2cn(Cc3ccc(F)cc3)nn2)no1,42.4 µM
22,Cc1ccccc1NC(=O)CNc1nc(Nc2ccccc2)nc(Nc2ccccc2)n1,21.7 µM
23,CCOC(=O)c1cnc(C(F)(F)F)nc1Sc1n[nH]c(-c2cccs2)n1,> 50 µM (inactive)
24,O=C(O)C1CCN(Cc2c(-c3ccco3)nc3ccc(Cl)cn23)CC1,> 50 µM (inactive)

row,Compound,IC50
1,CN(C)C(=O)CSc1nnc(-c2cccc(Cl)c2)n1-c1ccc(Cl)c(C(F)(F)F)c1,2.81 µM
2,COc1ccccc1NC(=O)CNC(=O)c1nn(-c2ccc(OC)c(OC)c2)c(=O)c2ccccc12,29.4 µM
3,Nc1ncnc2c1ncn2[C@@H]1O[C@H](CO)C[C@@H]1O,34.3 µM
4,COc1ccc(NC(=O)c2nnn(-c3ccccc3C)c2C)cc1OC,> 50 µM (inactive)
5,CC(=O)N1Cc2ccccc2CC2(CCCN(CC3CCOCC3)C2)C1 (stereo unspecified),> 50 µM (inactive)
6,Cc1c(S(=O)(=O)NC2CCCCNC2=O)sc2ccc(Cl)cc12 (stereo unspecified),43.1 µM
7,COc1ccc(C(=O)CSc2nnc(-c3cc4cccc(OC)c4o3)n2C)cc1OC,> 50 µM (inactive)
8,O=C(NCc1ccc(Br)cc1)c1ccc(-c2cccnc2)nc1,37.5 µM
9,COc1ccc(C(=O)Nc2nc(-c3ccc4c(c3)NC(=O)CO4)c(C)s2)cc1OC,1.23 µM
10,Cc1nc(-c2noc3ccc(C(=O)Nc4cccnc4)cc23)cs1,42.5 µM
11,Cc1ccc(C(=O)Nc2cc3c4c(c2)CC(=O)N4CCC3)cc1C,> 50 µM (inactive)
12,Cc1cccc(NC(=O)Nc2nnc(CC(=O)NCc3ccccc3)s2)c1,10.7 µM
13,COc1ccc(/C=C/c2ccnc3nc(-n4cccc4)nn23)cc1,> 50 µM (inactive)
14,CN1C(=O)COc2ccc(NC(=O)c3cc(-c4ccccc4)on3)cc21,9.45 µM
15,CCn1cc2c(n1)c(=O)n(Cc1ccc(C)cc1)c(=O)n2CC(=O)Nc1ccc(F)cc1,4.06 µM
16,Cn1c(COc2ccccc2)nnc1SCC(=O)Nc1ccc(N2CCOCC2)cc1,23.9 µM
17,CCc1ccc(NC(=O)Cc2nnc3cc(-c4nc(C)no4)ccn23)cc1,20.2 µM
18,CCn1cc(-c2nc(-c3ccccn3)no2)c(=O)c2cc(F)ccc21,32.5 µM
19,Cc1ccccc1C(=O)OCCN1C(=O)c2cccc3c(N4CCOCC4)ccc(c23)C1=O,> 50 µM (inactive)
20,O=C(c1cscn1)N1CCC2(CC1)CC1(CO2)Nc2ccccc2-n2cccc21 (stereo unspecified),> 50 µM (inactive)
21,COc1ccc(NC(=O)c2nnn(-c3ccccc3F)c2C)cc1OC,> 50 µM (inactive)
22,Cc1ccc2c(c1)-c1c(c(C(=O)N3CCN(c4ccccc4)CC3)nn1C)CS2,> 50 µM (inactive)
23,CCN(Cc1ccccc1)S(=O)(=O)c1ccc(C(=O)Nc2ccc3c(c2)OCCO3)cc1,> 50 µM (inactive)
24,COc1ccc(CNC(=O)Nc2cccc3ccccc23)cc1,9.93 µM

row,Compound,IC50
1,CC(=O)O[C@H]1[C@]2(O)C[C@]34SS[C@](CO)(C(=O)N3[C@@H]2C[C@@]12O[C@@H](C)C(C)(C)C2=O)N(C)C4=O,> 50 µM (inactive)
2,COc1ccccc1NC(=O)Cn1cc(C(=O)c2ccc(C)cc2)c(=O)c2cc(Cl)ccc21,16.6 µM
3,O=S(=O)(Nc1ccc(O)cc1)c1ccc2oc3ccc(S(=O)(=O)Nc4ccc(O)cc4)cc3c2c1,43.6 µM
4,Cc1ccc(C)c(S(=O)(=O)N2CCC3(CC2)NC(=O)c2ccccc2N3)c1,46.1 µM
5,O=C(/C=C/C=C/C=C/C1CCCCC1)NC1=C[C@@](O)(/C=C/C=C/C=C/C(=O)NC2=C(O)CCC2=O)[C@@H]2O[C@@H]2C1=O,3.32 µM
6,O=C1CC(C(=O)Nc2ccccc2F)n2nc(-c3ccccc3)cc2N1 (stereo unspecified),25.3 µM
7,CCc1nc2c(NC(=O)Nc3cccc(C(=O)OC)c3)cccn2n1,> 50 µM (inactive)
8,O=C(c1cn(-c2cccc(F)c2)nn1)N1CCc2ccccc2C1,18.5 µM
9,Cn1nccc1C(=O)N1CCCCC1c1ncc(Cc2ccc(Cl)cc2)o1 (stereo unspecified),> 50 µM (inactive)
10,Cn1cccc1C(=O)N1CCCC2(C1)Nc1cccnc1NC2=NC1CCCC1 (stereo unspecified),> 50 µM (inactive)
11,CO[C@H]1/C=C/OC2(C)Oc3c(C)c(O)c4c(c3C2=O)C2(C=C(NC(=O)/C(C)=C\C=C\[C@H](C)[C@H](O)[C@@H](C)[C@@H](O)[C@@H](C)[C@H](OC(C)=O)C1C)C4=O)OCC(=O)O2 (stereo partly specified),42.6 µM
12,Oc1sc(C=Nc2cc(Cl)ccc2Cl)c2ccccc12,1.46 µM
13,N#C/C(=C\c1ccc(OCc2cccc(C(=O)O)c2)cc1)c1ccc(F)cc1,29.5 µM
14,O=c1c(S(=O)(=O)c2cc(F)cc(F)c2)c[nH]c2cc(Cl)ccc12,23.8 µM
15,O=C(COc1ccc(S(=O)(=O)N2CCOCC2)cc1)N1CCC(Cc2ccccc2)CC1,> 50 µM (inactive)
16,Cc1ccc2[nH]c(=O)c(-c3nc4ccc(C)cn4c3NCc3ccc(F)cc3)cc2c1,1.98 µM
17,O=C(Cn1cc(C(=O)C2CC2)c2ccccc21)NCc1ccc2c(c1)OCO2,29.1 µM
18,CSc1ncccc1C(=O)NC1(O)C(=O)c2ccccc2C1=O,4.57 µM
19,O=c1[nH]c(C2CCN(S(=O)(=O)c3ccc(S(=O)(=O)NC4CCCCC4)cc3)CC2)nc2c1nnn2Cc1c(F)cccc1Cl,22.1 µM
20,COc1ccc(OC)c(NC(=O)Cn2c(=O)n(CC3CCC(C(=O)NCCc4ccccc4)CC3)c(=O)c3ccccc32)c1 (stereo unspecified),0.262 µM
21,Cc1ccc(C(=O)Nc2ccc3nccnc3c2)cc1,> 50 µM (inactive)
22,Cc1ccccc1-c1nnc(-c2ccc(C(=O)NCc3ccccc3F)cc2)o1,5.8 µM
23,Cn1c(-c2nnc(SCC(=O)NCCc3ccccc3)o2)cc2ccccc21,8.23 µM
24,COc1ccc(CNC(=O)CCc2nnc3n(Cc4ccccc4Cl)c(=O)c4ccccc4n23)cc1,2.65 µM
